Where two headings read alike, the source gives them in different places.
Legend:
PI3K gamma = PI3K gamma (Homo sapiens, UniProt P48736); experiment: In vitro enzyme activity assay (ADP-Glo lipid kinase), PI3K gamma; conditions: PI3Kγ IC50, ATP 25 μM, PIP2:3PS 50 μM, 120 min
Protocol: (§1) An appropriate substrate and ATP were incubated at a suitable condition for lipid kinase reaction, followed by a two-step detection of kinase activity using an ADP-Glo™ kit. Step I: The kinase reaction was terminated and residual ATP was completely removed, leaving ADP only; Step II: A kinase assay reagent was added to convert ADP to ATP by a luciferin/luciferase reaction. Finally, a fluorescence output value was detected and converted into kinase activity.
(§2) • 2) Kit: ADP-Glo™ lipid kinase and PIP2:3PS kit (Promega #V1792)
(§3) The mixture was incubated at 23° C. for 20 min • (10) 2 μL of ATP solution was added, and the mixture was centrifuged at 1000 rpm and was shaken to mix well • (11) The plate was covered, shaken for about 30 s, and incubated for 2 h at 23° C. • (12) 5 μL of ADP-Glo reagent containing 10 mM MgCl2 was added • (13) The mixture was centrifuged at 1000 rpm for 10 s, covered and shaken for about 30 s, and incubated at 23° C. for 60 min • (14) 10 μL of kinase assay reagent was added • (15) The mixture was centrifuged at 1000 rpm for 10 s, and incubated at 23° C. for 60 min • (16) Fluorescence values were measured by an Envision system. • 2. […] The mixture was incubated at 37° C./CO2 for 10 min. • 5) The compound was removed by pipette. Lysis buffer was added at 50 μL/well, and the cells wereincubated on a shaker for 30 min. • 6) After the cells were completely lysed, 16 μL of lysate was transferred to a 384-well plate and 4 μL of prepared AC+D2 in the kit was added. (AC: Eu3+-cryptate antibody binds to phosphorylated AKT, while D2 binds to non-phosphorylated AKT) The mixture was incubated at room temperature for 4 h.

PI3K delta = PI3K delta (Homo sapiens, UniProt O00329); experiment: In vitro enzyme activity assay (ADP-Glo lipid kinase), PI3K delta; conditions: PI3Kδ IC50, ATP 40 μM, PIP2:3PS 50 μM, 120 min;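 note: kinase reaction run at 23 °C, then leftover ATP depleted and the ADP formed turned back into ATP, with the luciferin/luciferase signal read as kinase activity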
Protocol: as §1, §2
The kit comprises: 1 mM PIP2:3PS, 10× lipid dilution buffer, 1 M magnesium chloride, 10 mM ATP, 10 mM ADP, ADP-Glo reagent, detection buffer and substrate. • 3) Plate: OptiPlate-384, white and transparent (PerkinElmer #6007299) Reagent preparation: • 1) 10x reaction buffer: 500 mM HEPES (4-(2-hydroxyethyl)-1-piperazineethanesulfonic acid), pH 7.5, 500 mM NaCl, 9 mM MgCl2; BSA: 10% stock solution, prepared in-house • 2) Condition for final test system: 1× reaction system: 50 mM HEPES, 50 mM NaCl, 3 mM MgCl2, 0.01% BSA (prepared on the day of experiment), 1% DMSO (v/v) +/−compound • 3) Reaction system: 3 μL of enzyme and substrate mixture (1:1) +2 μL of ATP/MgCl2 mixture +5 μL of ADP-Glo reagent +10 μL detection reagent.
The specific experimental procedures are as follows: • 1) Dilution: 50 nL of 100× compound/DMSO solution were transferred into a test plate using Echo • For PI3Kα, the compound was serially diluted by three fold from the highest concentration 0.111 mM to the 10th concentration. • For PI3Kβ/PI3Kδ/PI3Kγ, the compound was serially diluted by three fold from the highest concentration of 1.11 mM to the 10th concentration. • 2) Kinase reaction: • (1) The target compounds were prepared. 50 nL of 100× compound solution or DMSO was added to the corresponding plate • (2) A 3.33 × reaction buffer was prepared • (3) A 3.33× PIP2:3PS solution were prepared; the PIP2:3PS solution should be thawed by vortex for at least 1 min before use • (4) An ATP solution containing 5.25 mM MgCl2 was prepared • (5) 3.33× PI3Kα/PI3Kβ/PI3Kδ/PI3Kγ solutions were prepared • (6) The lipid kinase solution and PIP2:3PS solution were mixed at a volume ratio of 1:1 • (7) The 3.33 × lipid kinase buffer and PIP2:3PS solution were mixed at a volume ratio of 1:1 • (8) 3 μL of the mixed solution of reaction buffer and PIP2:3PS was added to Columns 1 and 2 of the plate • (9) 3 μL of the mixed solution of the enzyme and PIP2:3PS was added to the wells of the plate other than Columns 1 and 2, and was centrifuged for 10 s (1000 rpm). The mixture was incubated at 23° C. for 20 min • (10) 2 μL of ATP solution was added, and the mixture was centrifuged at 1000 rpm and was shaken to mix well • (11) The plate was covered, shaken for about 30 s, and incubated for 2 h at 23° C. • (12) 5 μL of ADP-Glo reagent containing 10 mM MgCl2 was added • (13) The mixture was centrifuged at 1000 rpm for 10 s, covered and shaken for about 30 s, and incubated at 23° C. for 60 min • (14) 10 μL of kinase assay reagent was added • (15) The mixture was centrifuged at 1000 rpm for 10 s, and incubated at 23° C. for 60 min • (16) Fluorescence values were measured by an Envision system. • 2.

[1] = In vivo DMPK study, single dose in female Balb/c mice; conditions: for half-life: female, Balb/c, 1 mg/kg, note lists it as an intravenous parameter, read-out: T1/2 (half-life) (converted); for half-life / Cmax: mouse, plasma; for half-life / Oral DNAUC (dose-normalized area under curve): mice; for Cmax: oral 3 mg/kg, female Balb/c mice
Protocol: Objective: To evaluate the plasma concentration of the compounds and pharmacokinetics after a single dose in female Balb/c mice.
Procedures: 8 healthy adult female Balb/c mice were randomized, 4 for intravenous administration and 4 for oral administration. The compounds were mixed with a proper amount of vehicle for intravenous injection (DMSO/PEG200/water (5:45:50 v/v/v)). The mixture was vortexed and treated with ultrasound to give a 1.0 mg/mL clear solution. The clear solution was filtered through a microporous membrane filter for later use. For the oral group, the vehicle was 0.5% MC/0.2% Tween 80. The compound was mixed with the vehicle, and the mixture was vortexed and ultrasonically treated to give 1.0 mg/mL uniform suspension for later use. The mice were administered intravenously at 1 mg/kg or orally at 3 mg/kg. Whole blood was collected at certain time points, and plasma was separated. The drug concentration was measured by LC-MS/MS, and pharmacokinetic parameters were calculated using
Phoenix WinNonlin software (Pharsight, USA).

TMD-8 cell = TMD-8 cell viability test (CellTiter-Glo, 72 h); type: cell-based; conditions: Homo sapiens, TMD8
Protocol: 7) After incubation, readings at 620 and 665 nm on EnVingen were recorded. • <2> TMD-8 cell viability test • 1) Cell Culture
Cells were regularly passaged. Cells at logarithmic growth phase were transferred to the plate. • 2) Plating • (1). Cells were stained with trypan blue and viable cells were counted. • (2). Cell concentration was adjusted to 7000 cells/well • (3). 90 μL of cell suspension was added to each well of the plate and cell-free medium was added to blank control wells. • (4). The plate was incubated overnight at 37° C., 5% CO2 and 100% relative humidity in an incubator. • 3) Preparation of Plate Containing Compound Stock
(1). Preparation of plate containing 400× compound stock: Compounds were diluted from the highest concentration gradient to lowest concentration with DMSO. • 4) Preparation of 10× compound working solution and treatment • (1). Preparation of 10× compound working solution: 78 μL of cell culture medium was added to a V-bottom 96-well plate, and 2 μL of compound stock solution was pipetted from the plate containing 400× compound stock into the cell cultures of 96-well plate. 2 μL of DMSO was added to the vehicle control wells and blank control wells. After compounds or DMSO was added, the mixture was well mixed by a pipette. • (2). 10 μL of DMSO-cell culture medium mixture solution was added to the vehicle control wells and blank control wells. The final concentration of DMSO was 0.25%. • (3). The 96-well cell plate was incubated in the incubator for another 72 h. • 5) CellTiter-Glo Luminescent Cell Viability Assay
The following procedure was performed according to the instructions of Promega CellTiter-Glo luminescent cell viability assay kit (Promega-G7573). • (1). CellTiter-Glo buffer was thawed and let stand at room temperature. • (2). The CellTiter-Glo substrate was let stand at room temperature. • (3). The CellTiter-Glo buffer was added to a flask of CellTiter-Glo substrate to dissolve the substrate, thereby preparing a CellTiter-Glo working solution. • (4). The solution was vortexed to completely dissolve the substrate. • (5). The plate was incubated at room temperature for 30 min for equilibration. • (6). 50 μL (equal to half the volume of cell culture medium in each well) of CellTiter-Glo working solution was added to each well. The plate was covered by aluminum foil to avoid light. • (7). The plate was shaken on an orbital shaker for 2 min to induce cell lysis. • (8). The plate was let stand at room temperature for 10 min to stabilize the luminescence signals. • (9). The luminescence signals were detected on 2104 EnVision plate reader.

PI3K alpha = PI3K alpha (Homo sapiens, UniProt P42336); experiment: In vitro enzyme activity assay (ADP-Glo lipid kinase), PI3K alpha
Protocol: as §1, §2, §3

PI3K beta = PI3K beta (Homo sapiens, UniProt P42338); experiment: In vitro enzyme activity assay (ADP-Glo lipid kinase), PI3K beta
Sequence of PI3K beta (P42338 whole entry): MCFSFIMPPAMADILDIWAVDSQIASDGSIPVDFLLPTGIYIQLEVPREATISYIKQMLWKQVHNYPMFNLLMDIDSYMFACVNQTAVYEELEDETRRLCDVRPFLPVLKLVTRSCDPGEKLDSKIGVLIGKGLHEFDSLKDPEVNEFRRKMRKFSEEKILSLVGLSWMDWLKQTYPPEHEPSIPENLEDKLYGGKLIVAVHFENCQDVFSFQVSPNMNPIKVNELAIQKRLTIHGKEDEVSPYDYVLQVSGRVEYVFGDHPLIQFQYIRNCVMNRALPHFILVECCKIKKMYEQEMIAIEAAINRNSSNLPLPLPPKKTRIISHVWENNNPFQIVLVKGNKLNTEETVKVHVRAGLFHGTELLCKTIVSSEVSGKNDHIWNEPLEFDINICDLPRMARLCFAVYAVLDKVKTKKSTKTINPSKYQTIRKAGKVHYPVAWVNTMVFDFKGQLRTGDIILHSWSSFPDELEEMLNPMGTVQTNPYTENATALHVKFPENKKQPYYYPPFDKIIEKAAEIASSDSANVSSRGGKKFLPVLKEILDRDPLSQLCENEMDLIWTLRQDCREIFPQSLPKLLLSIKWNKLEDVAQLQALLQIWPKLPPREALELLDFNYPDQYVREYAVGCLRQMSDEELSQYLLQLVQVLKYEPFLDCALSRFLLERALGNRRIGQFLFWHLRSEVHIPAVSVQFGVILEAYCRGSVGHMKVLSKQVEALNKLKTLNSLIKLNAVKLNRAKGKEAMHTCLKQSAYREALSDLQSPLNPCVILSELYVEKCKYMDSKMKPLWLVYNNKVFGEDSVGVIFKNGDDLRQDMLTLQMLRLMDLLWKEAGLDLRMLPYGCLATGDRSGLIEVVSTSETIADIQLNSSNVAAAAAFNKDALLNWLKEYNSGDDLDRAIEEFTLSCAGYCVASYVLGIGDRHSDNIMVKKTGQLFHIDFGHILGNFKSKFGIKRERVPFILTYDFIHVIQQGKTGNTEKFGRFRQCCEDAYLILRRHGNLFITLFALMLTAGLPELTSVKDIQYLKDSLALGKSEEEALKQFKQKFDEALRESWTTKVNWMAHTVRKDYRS
Sequence of PI3K beta (P27986 whole entry partner): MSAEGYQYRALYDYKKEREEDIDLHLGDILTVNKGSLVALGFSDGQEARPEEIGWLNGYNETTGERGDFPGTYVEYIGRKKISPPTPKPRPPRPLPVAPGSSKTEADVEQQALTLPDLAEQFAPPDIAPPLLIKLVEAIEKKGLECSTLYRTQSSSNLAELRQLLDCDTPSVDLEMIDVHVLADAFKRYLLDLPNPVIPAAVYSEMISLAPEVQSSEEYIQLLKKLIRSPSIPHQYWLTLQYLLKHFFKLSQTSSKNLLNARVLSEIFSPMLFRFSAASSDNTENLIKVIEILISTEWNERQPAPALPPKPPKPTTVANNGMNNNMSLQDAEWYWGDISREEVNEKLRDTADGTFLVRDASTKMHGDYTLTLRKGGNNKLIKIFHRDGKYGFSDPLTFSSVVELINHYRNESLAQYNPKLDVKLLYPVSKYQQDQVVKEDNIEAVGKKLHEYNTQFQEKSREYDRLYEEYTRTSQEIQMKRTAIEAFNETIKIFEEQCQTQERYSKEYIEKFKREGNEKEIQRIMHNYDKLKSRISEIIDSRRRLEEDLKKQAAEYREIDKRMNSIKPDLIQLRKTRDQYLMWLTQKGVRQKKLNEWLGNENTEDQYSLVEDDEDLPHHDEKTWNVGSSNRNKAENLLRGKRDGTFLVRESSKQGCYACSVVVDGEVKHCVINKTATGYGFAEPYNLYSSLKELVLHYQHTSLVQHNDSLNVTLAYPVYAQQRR
Protocol: as §1, §2, §3

Sequence of PI3K gamma (P48736 whole entry): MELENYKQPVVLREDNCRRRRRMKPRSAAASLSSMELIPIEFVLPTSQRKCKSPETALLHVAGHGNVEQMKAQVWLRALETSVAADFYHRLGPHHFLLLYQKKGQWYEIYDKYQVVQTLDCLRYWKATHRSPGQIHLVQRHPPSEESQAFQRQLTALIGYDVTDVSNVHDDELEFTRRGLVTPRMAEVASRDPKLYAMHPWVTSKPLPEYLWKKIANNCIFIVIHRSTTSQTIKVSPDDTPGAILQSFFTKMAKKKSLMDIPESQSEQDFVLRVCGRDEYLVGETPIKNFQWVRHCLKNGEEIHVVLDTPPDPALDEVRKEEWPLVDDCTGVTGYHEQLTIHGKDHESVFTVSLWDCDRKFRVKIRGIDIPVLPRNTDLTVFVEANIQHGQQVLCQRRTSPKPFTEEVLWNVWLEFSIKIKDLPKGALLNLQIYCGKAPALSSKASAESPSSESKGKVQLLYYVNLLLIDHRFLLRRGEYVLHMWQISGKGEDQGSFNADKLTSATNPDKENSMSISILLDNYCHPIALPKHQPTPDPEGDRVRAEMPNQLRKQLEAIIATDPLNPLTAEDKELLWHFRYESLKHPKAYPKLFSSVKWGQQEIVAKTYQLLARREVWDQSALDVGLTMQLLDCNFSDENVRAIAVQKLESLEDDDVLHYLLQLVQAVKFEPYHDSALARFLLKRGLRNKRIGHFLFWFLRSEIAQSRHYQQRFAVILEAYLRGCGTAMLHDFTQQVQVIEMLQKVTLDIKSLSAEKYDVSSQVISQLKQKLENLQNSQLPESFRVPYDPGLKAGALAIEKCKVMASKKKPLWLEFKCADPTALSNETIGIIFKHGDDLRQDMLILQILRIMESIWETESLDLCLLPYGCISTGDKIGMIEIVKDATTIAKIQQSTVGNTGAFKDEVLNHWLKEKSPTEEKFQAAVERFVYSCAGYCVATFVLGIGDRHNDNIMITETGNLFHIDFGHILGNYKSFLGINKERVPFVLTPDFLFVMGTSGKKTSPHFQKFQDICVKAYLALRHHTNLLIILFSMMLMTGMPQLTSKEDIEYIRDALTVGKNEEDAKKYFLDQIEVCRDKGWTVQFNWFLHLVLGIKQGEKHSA
Sequence of PI3K delta (O00329 whole entry): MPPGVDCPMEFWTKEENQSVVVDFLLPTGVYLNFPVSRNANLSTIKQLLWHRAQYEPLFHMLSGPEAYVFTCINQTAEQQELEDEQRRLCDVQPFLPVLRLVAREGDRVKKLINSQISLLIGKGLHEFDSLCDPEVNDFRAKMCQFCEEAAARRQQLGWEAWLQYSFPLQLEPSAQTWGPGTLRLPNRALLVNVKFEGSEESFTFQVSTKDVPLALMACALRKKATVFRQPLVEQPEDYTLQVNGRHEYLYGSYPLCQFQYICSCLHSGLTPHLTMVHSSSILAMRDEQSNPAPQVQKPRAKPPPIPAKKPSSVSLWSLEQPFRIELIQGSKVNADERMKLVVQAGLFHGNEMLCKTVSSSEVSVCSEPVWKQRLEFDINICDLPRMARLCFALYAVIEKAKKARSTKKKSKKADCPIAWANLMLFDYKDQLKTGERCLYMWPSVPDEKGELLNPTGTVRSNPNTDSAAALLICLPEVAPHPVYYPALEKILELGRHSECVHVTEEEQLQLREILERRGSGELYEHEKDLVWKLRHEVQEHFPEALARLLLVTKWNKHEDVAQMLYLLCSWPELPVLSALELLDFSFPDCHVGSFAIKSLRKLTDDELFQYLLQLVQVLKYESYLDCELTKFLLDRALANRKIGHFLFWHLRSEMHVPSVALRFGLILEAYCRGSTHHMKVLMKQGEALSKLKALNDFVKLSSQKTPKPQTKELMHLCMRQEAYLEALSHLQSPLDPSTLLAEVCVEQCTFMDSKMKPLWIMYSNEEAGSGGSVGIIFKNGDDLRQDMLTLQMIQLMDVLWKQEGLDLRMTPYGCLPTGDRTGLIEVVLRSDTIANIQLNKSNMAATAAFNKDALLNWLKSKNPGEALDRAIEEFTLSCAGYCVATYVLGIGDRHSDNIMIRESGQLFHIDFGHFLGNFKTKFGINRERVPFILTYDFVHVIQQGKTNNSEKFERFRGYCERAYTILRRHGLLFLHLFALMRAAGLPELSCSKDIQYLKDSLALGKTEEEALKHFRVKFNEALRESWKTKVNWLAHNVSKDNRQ
Sequence of PI3K delta (P27986 whole entry partner): as the sequence (P27986 whole entry partner) above
Sequence of PI3K alpha (P42336 whole entry): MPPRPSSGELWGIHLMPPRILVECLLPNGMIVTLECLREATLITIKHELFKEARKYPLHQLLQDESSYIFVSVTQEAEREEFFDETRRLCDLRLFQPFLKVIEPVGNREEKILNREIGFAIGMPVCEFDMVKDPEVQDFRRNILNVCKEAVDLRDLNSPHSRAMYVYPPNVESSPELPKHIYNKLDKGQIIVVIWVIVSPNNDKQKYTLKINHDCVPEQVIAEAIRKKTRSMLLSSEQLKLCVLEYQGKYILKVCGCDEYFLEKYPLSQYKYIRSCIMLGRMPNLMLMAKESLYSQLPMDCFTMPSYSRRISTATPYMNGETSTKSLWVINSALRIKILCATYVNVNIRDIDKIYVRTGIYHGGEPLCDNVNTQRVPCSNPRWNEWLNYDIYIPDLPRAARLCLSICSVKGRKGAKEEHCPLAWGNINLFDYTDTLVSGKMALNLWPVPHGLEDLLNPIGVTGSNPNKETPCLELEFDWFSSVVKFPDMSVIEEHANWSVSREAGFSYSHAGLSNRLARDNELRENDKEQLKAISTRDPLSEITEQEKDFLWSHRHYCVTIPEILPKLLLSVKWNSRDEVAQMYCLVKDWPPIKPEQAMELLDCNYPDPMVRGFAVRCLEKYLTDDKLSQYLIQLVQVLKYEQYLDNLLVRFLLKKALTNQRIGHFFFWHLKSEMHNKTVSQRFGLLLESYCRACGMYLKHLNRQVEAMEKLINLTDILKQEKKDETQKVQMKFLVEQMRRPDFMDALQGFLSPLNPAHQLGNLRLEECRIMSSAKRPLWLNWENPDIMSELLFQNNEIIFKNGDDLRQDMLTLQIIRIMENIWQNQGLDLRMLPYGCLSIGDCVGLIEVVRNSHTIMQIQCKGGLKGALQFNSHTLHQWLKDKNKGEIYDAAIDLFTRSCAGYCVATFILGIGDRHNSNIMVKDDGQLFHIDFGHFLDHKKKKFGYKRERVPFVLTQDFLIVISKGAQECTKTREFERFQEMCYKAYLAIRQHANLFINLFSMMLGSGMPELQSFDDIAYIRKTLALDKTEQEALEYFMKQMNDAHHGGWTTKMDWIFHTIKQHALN
Sequence of PI3K alpha (P27986 whole entry partner): as the sequence (P27986 whole entry partner) above

SMILES | IC50 (PI3K gamma) | IC50 (PI3K delta) | other results
COc1ccc(-c2nn(C(C)c3nc4ccc(F)cn4c(=O)c3-c3cccc(F)c3)c3ncnc(N)c23)cc1F (stereo not drawn) [WX009] | > 10000 nM | > 1000 nM | 
CC(c1nc2ccc(F)cn2c(=O)c1-c1cccc(F)c1)n1nc(-c2cnc(OCC(F)F)s2)c2c(N)ncnc21 (stereo not drawn) [WX016] | 260 nM | 41.5 nM | half-life [1]: 3.85 h; Cmax [1]: 2180 nM; Oral DNAUC (dose-normalized area under curve) [1]: 5599 nM · h/mpk; IC50 (TMD-8 cell): 4110 nM
COCCOc1ncc(-c2nn(C(C)c3nc4ccc(F)cn4c(=O)c3-c3cccc(F)c3)c3ncnc(N)c23)s1 (stereo not drawn) [WX018] | 1550 nM | 122 nM | half-life [1]: 1.4 h; Cmax [1]: 2240 nM; Oral DNAUC (dose-normalized area under curve) [1]: 1244 nM · h/mpk; IC50 (TMD-8 cell): 3420 nM
Cc1nc(C)c(-c2nn(C(C)c3nc4ccc(F)cn4c(=O)c3-c3cccc(F)c3)c3ncnc(N)c23)s1 (stereo not drawn) [WX022] | 9860 nM | 601 nM | 
CC(c1nc2ccc(F)cn2c(=O)c1-c1cccc(F)c1)n1nc(-c2cnc(OC3CC(F)(F)C3)s2)c2c(N)ncnc21 (stereo not drawn) [WX020] | 275 nM | 491 nM | IC50 (TMD-8 cell): > 50000 nM
COc1ncc(-c2nn(C(C)c3nc4ccc(F)cn4c(=O)c3-c3cccc(F)c3)c3ncnc(N)c23)s1 (single isomer, unassigned) [WX008] | > 10000 nM | 783 nM | 
COc1ccc(-c2nn(C(C)c3nc4ccc(F)cn4c(=O)c3-c3cccc(F)c3)c3ncnc(N)c23)cn1 (single isomer, unassigned) [WX011] | > 10000 nM | 604 nM | 
CC(C)Oc1ccc(-c2nn(C(C)c3nc4c(Cl)cc(F)cn4c(=O)c3-c3cccc(F)c3)c3ncnc(N)c23)cc1F (stereo not drawn) [WX014] | 620 nM | 229 nM | 
COc1ncc(-c2nn(C(C)c3nc4ccc(F)cn4c(=O)c3-c3cccc(F)c3)c3ncnc(N)c23)cc1C#N (single isomer, unassigned) [WX006] | > 10000 nM | > 1000 nM | 
CC(C)Oc1ccc(-c2nn(C(C)c3nc4c(F)cccn4c(=O)c3-c3cccc(F)c3)c3ncnc(N)c23)cc1F (single isomer, unassigned) [WX013] | 573 nM | 297 nM | 
CC(C)Oc1ccc(-c2nn(C(C)c3nc4ccc(F)cn4c(=O)c3-c3cccc(F)c3)c3ncnc(N)c23)cn1 (single isomer, unassigned) [WX003] | > 10000 nM | > 1000 nM | 
CC(C)Oc1ccc(-c2nn(C(C)c3nc4ccc(F)cn4c(=O)c3-c3cccc(F)c3)c3ncnc(N)c23)cc1F (single isomer, unassigned) [WX002] | > 10000 nM | > 1000 nM | IC50 (PI3K alpha; read-out: PI3Kα IC50, ATP 40 μM, PIP2:3PS 50 μM, 120 min): > 10000 nM; IC50 (PI3K beta; read-out: PI3Kβ IC50, ATP 40 μM, PIP2:3PS 50 μM, 120 min): > 10000 nM

Second part, led by results:

IC50 (PI3K gamma) | IC50 (PI3K delta) | SMILES | other results
408 nM | 4 nM | CNc1ncc(-c2nn(C(C)c3nc4ccc(F)cn4c(=O)c3-c3cccc(F)c3)c3ncnc(N)c23)s1 (stereo not drawn) [WX034] | 
455 nM | 271 nM | Cc1cccc2nc(C(C)n3nc(-c4ccc(OC(C)C)c(F)c4)c4c(N)ncnc43)c(-c3cccc(F)c3)c(=O)n12 (stereo not drawn) [WX040] | 
1740 nM | 16.3 nM | CC(c1nc2ccc(F)cn2c(=O)c1-c1cccc(F)c1)n1nc(-c2cnc(C(C)(C)C)s2)c2c(N)ncnc21 (stereo not drawn) [WX032] | half-life [1]: 18.4 h; Cmax [1]: 1500 nM; Oral DNAUC (dose-normalized area under curve) [1]: 2662 nM · h/mpk
494 nM | 3.48 nM | CC(c1nc2ccc(F)cn2c(=O)c1-c1cccc(F)c1)n1nc(-c2cnc(N(C)C)s2)c2c(N)ncnc21 (stereo not drawn) [WX046] | half-life [1]: 1.73 h; Cmax [1]: 1560 nM; Oral DNAUC (dose-normalized area under curve) [1]: 1648 nM · h/mpk
2030 nM | 72.5 nM | CC(C)Oc1ncc(-c2nn(C(C)c3nc4ccc(F)cn4c(=O)c3-c3cccc(F)c3)c3ncnc(N)c23)s1 (stereo not drawn) [WX048] | 
1210 nM | 66.6 nM | CSc1ccc(-c2nn(C(C)c3nc4ccc(F)cn4c(=O)c3-c3cccc(F)c3)c3ncnc(N)c23)cn1 (stereo not drawn) [WX036] | 
1190 nM | 45.6 nM | CC(c1nc2ccc(F)cn2c(=O)c1-c1cccc(F)c1)n1nc(-c2cnc(OC3CC3)s2)c2c(N)ncnc21 (stereo not drawn) [WX030] | 
582 nM | 13.9 nM | Cc1ncc(-c2nn(C(C)c3nc4ccc(F)cn4c(=O)c3-c3cccc(F)c3)c3ncnc(N)c23)s1 (stereo not drawn) [WX050] | half-life [1]: 2.38 h; Cmax [1]: 1260 nM; Oral DNAUC (dose-normalized area under curve) [1]: 1513 nM · h/mpk
2940 nM | 330 nM | CC(c1nc2ccc(F)cn2c(=O)c1-c1cccc(F)c1)n1nc(-c2cnc(OCC(F)(F)F)s2)c2c(N)ncnc21 (stereo not drawn) [WX028] | 
1130 nM | 461 nM | CC(C)Oc1ncc(-c2nn(C(C)c3nc4ccc(F)cn4c(=O)c3-c3cccc(F)c3)c3ncnc(N)c23)cc1C#N (single isomer, unassigned) [WX025] | 
7170 nM | 313 nM | CC(C)Oc1ncc(-c2nn(C(C)c3nc4ccc(F)cn4c(=O)c3-c3cccc(F)c3)c3ncnc(N)c23)cc1C#N (single isomer, unassigned) [WX024] | 
735 nM | 188 nM | CC(c1nc2ccc(F)cn2c(=O)c1-c1cccc(F)c1)n1nc(-c2cnc3c(c2)OCCO3)c2c(N)ncnc21 (stereo not drawn) [WX056] | Cmax [1]: 4950 nM; Oral DNAUC (dose-normalized area under curve) [1]: 2037 nM · h/mpk; IC50 (PI3K alpha): > 10000 nM; IC50 (PI3K beta): > 10000 nM
